Source: patent US11834453B2, “Substituted pyrimido[5,4-d]pyrimidines as HER2 inhibitors” (Array BioPharma Inc., priority 2020, dated 2023)

What was measured:
[1] = target: ErbB2 insYVMA (HER2-YVMA, SEQ ID NO: 2) (Homo sapiens, UniProt P04626, INS775YVMA/P1170A); assay: biochemical; conditions: ErbB2 insYVMA enzyme assay; read-out: Assay 1 IC50
[2] = target: ErbB2 WT (Homo sapiens (Human), UniProt P04626); assay: ErbB enzyme assay (CisBio HTRF KinEASE-TK), Assay 2; type: biochemical
Method in brief: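 Readout is HTRF KinEASE-TK, using Sa-XL665 and cryptate antibody for 1 h at 22 °C, as percent of control between DMSO-only (100) and pre-quenched (0) reactions. The kinase reaction runs 30 min at 22 °C with 1 mM ATP and 250 nM biotinylated TK substrate, in HEPES pH 7.4 with MgCl2 and 2% DMSO.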

[3] = target: T1, EGFR wild type (EGFR WT) (Homo sapiens (Human), UniProt P00533); assay: Cellular phosphorylation assay, EGF-stimulated EGFR phosphorylation (Y1068) in engineered NIH 3T3 cells, Odyssey imaging, Assay 5 (footnote 1); type: cell-based; conditions: values marked with footnote 1
Procedure: NIH 3T3 cells were engineered to express ErbB2 with Exon 20 YVMA insertion (HER2-YVMA (SEQ ID NO: 2); Assay 4) or EGFR wild type (EGFR WT; Assay 5, footnote 1) with constructs obtained from GenScript and grown in DMEM supplemented with 10% fetal bovine serum and 15 μg/ml blasticidin. Cells were plated in 96-well plates at 40,000 or 45,000 cells/well for HER2-YVMA (SEQ ID NO: 2) and EGFR WT assays, respectively, and allowed to attach overnight at 37° C./5% CO2. Serially diluted compounds were added to the plates for 1 hour at 37° C./5% CO2. EGFR WT cells were stimulated with 100 ng/ml rEGF for an additional 10 minutes at 37° C./5% CO2. After compound incubation, medium was removed from the cells, which were then fixed in 3.7% formaldehyde in PBS at room temperature for 20 minutes. Following a wash with PBS, cells were permeabilized with 100% methanol at room temperature for 10 minutes. Cells were then washed with PBS/0.05% Tween-20 and blocked with Odyssey blocking buffer (LI-COR Biosciences) for at least 1 hour at room temperature. Antibodies to phosphorylated ErbB2 (Y1196, Cell Signaling #6942) or phosphorylated EGFR (Y1068, Cell Signaling #3777) and GAPDH (Millipore #MAB374) were added to the cells in blocking buffer containing 0.05% azide and incubated overnight at 4° C. After washing with PBS/0.05° i° Tween-20, the cells were incubated with fluorescently labeled secondary anti-rabbit antibody (LiCOR, IRDye 800CW #926-32211) and anti-mouse antibody (Molecular Probes, Alexa Fluor 680 #A21058) for 1 hour at room temperature in the dark. Cells were then washed and analyzed for fluorescence at both wavelengths using the Odyssey Infrared Imaging System (LI-COR Biosciences). Phosphorylated ErbB2 and EGFR signal was normalized to GAPDH signal to generate curves and calculate IC50 values.

[4] = target: ErbB2 with Exon 20 YVMA insertion (HER2-YVMA) (Homo sapiens (Human), UniProt P04626, INS775YVMA); assay: Cellular phosphorylation assay, constitutive ErbB2 phosphorylation (Y1196) in engineered NIH 3T3 cells, Assay 4; type: cell-based
Method in brief: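 In-cell Western in NIH 3T3 cells carrying ErbB2 exon 20 YVMA insertion, with no ligand stimulation. One hour compound exposure at 37 °C before fixation and anti-pY1196 plus GAPDH staining with dual-wavelength fluorescence. IC50 derived after GAPDH normalization.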

[5] = target: T2, MDR1 (P-gp) (Homo sapiens (Human), UniProt P08183); assay: MDR1 transfected MDCKII canine Mdr1 knockout permeability/efflux, Assay 7; conditions: dog, MDCK-MDR1
Procedure: Both MDR1 transfected LLC-PK1 (Assay 6) and MDR1 transfected MDCKII canine Mdr1 knockout cells (Assay 7) were cultured and plated according to manufacturer's recommendations with the exception that the passage media for the MDR1 transfected LLC-PK1 cell line contained only 2% fetal bovine serum so as to extend passage time out to seven days.
Both positive and negative controls were used to assess functionality of P-gp or BCRP efflux in the assays. Stock solutions for assay controls and the test article were prepared in DMSO for final test concentration of 1 μM. Final organic concentration in the assay was 1%. All dosing solutions contained 10 μM lucifer yellow to monitor MDCKII cell monolayer integrity.
For the apical to basolateral determination (A to B), 75 μL of the test article in transport buffer were added to the apical side of the individual transwells and 250 μL of basolateral media, without compound or lucifer yellow, were added to each well. For the basolateral to apical determination (B to A), 250 μL of test article in transport buffer were added to each well and 75 μL transport buffer, without compound or lucifer yellow, were added to each transwell. All tests were performed in triplicate, and each compound was tested for both apical to basolateral and basolateral to apical transport. The plates were incubated for 2 hours on a Lab-Line Instruments Titer Orbital Shaker (VWR, West Chester, PA) at 50 rpm and 37° C. with 5% CO2. All culture plates were removed from the incubator, 50 μL of media were removed from the apical and basolateral portion of each well, and added to 150 μL of 1 μM labetalol in 2:1 acetonitrile (ACN): H2O, v/v.
The plates were read using a Molecular Devices (Sunnyvale, CA) Gemini Fluorometer to evaluate the lucifer yellow concentrations at excitation/emission wavelengths of 425/535 nm. These values were accepted when found to be below 2% for apical to basolateral and 5% basolateral to apical flux across the MDR1-transfected LLC-PK1 or BCRP-transfected MDCKII cell monolayers. The plates were sealed, and the contents of each well analyzed by LC MS/MS. The compound concentrations were determined from the ratio of the peak areas of the compound to the internal standard (labetalol) in comparison to the dosing solution.
A MDS Sciex API 4000 (Applied Biosystems, Foster City, CA) mass spectrometer was used for detection of the analytes in the ion spray positive mode. Analyte responses were measured by multiple reaction monitoring (“MRM”) of transitions unique to each compound (the protonated precursor ion and selected product ions for each test article and m/z 329 to m/z 162 for labetalol, the internal standard.
The total run time, including re-equilibration, for a single injection was 1.2 minutes. […] The total run time, including re-equilibration, for a single injection was 0.61 minutes.
An efflux ratio is calculated from the mean apical to basolateral (A-B) Papp data and basolateral to apical (B-A) Papp data: Efflux ratio=Papp(B−A)/Papp(A−B)

[6] = target: EGFR (Homo sapiens (Human), UniProt P00533); assay: ErbB enzyme assay (CisBio HTRF KinEASE-TK), Assay 3; type: biochemical
Method in brief: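 First, enzyme was reacted with compound, 1 mM ATP and 250 nM biotinylated tyrosine-kinase peptide for 30 min at 22 °C at pH 7.4. Next, streptavidin-XL665 and cryptate antibody were added for 1 h. Finally, HTRF ratios were converted to POC and fitted to yield IC50.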

[7] = target: T2, MDR1 (P-gp); assay: MDR1 transfected LLC-PK1 permeability/efflux, Assay 6; conditions: pig, LLC-PK1, Assay 6 Pe Ratio, efflux ratio Papp(B-A)/Papp(A-B), MDR1 transfected LLC-PK1
[8] = target: T1, EGFR wild type (EGFR WT); assay: Cellular phosphorylation assay, EGF-stimulated EGFR phosphorylation in engineered NIH 3T3 cells, Phospho-EGFR DuoSet IC ELISA, Assay 5; type: cell-based
Method in brief: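 Phospho-EGFR ELISA on lysates of engineered NIH 3T3 EGFR WT cells, IC50 derived from concentration curves. Cells plated at 20,000/well overnight, given compound dilutions 1 h at 37 °C, then rEGF 100 ng/ml for a further 10 min before lysis.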

[9] = target: BCRP (Homo sapiens (Human), UniProt Q9UNQ0); assay: BCRP transfected MDCKII canine Mdr1 knockout permeability/efflux, Assay 9; conditions: dog, Assay 9 Pe Ratio, efflux ratio Papp(B-A)/Papp(A-B), BCRP transfected MDCKII canine Mdr1 knockout
BCRP, sequence (Q9UNQ0 whole entry): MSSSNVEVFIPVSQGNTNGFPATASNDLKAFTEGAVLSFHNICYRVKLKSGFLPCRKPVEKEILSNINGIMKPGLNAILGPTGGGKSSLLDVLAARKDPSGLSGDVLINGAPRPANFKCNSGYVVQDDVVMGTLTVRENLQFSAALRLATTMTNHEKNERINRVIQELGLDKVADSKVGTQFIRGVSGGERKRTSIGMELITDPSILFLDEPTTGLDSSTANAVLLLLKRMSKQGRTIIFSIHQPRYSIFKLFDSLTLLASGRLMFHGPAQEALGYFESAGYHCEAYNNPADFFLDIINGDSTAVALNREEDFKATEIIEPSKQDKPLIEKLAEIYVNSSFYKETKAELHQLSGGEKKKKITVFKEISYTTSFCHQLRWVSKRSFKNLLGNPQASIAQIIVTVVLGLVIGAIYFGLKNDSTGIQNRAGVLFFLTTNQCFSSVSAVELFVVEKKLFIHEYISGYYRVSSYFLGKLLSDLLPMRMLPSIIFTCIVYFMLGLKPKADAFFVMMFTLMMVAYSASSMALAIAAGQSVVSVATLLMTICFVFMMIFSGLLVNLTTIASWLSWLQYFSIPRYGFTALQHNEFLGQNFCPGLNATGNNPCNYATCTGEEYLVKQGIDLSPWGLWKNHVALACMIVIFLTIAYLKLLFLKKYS

T1 sequence (P00533 25-1210): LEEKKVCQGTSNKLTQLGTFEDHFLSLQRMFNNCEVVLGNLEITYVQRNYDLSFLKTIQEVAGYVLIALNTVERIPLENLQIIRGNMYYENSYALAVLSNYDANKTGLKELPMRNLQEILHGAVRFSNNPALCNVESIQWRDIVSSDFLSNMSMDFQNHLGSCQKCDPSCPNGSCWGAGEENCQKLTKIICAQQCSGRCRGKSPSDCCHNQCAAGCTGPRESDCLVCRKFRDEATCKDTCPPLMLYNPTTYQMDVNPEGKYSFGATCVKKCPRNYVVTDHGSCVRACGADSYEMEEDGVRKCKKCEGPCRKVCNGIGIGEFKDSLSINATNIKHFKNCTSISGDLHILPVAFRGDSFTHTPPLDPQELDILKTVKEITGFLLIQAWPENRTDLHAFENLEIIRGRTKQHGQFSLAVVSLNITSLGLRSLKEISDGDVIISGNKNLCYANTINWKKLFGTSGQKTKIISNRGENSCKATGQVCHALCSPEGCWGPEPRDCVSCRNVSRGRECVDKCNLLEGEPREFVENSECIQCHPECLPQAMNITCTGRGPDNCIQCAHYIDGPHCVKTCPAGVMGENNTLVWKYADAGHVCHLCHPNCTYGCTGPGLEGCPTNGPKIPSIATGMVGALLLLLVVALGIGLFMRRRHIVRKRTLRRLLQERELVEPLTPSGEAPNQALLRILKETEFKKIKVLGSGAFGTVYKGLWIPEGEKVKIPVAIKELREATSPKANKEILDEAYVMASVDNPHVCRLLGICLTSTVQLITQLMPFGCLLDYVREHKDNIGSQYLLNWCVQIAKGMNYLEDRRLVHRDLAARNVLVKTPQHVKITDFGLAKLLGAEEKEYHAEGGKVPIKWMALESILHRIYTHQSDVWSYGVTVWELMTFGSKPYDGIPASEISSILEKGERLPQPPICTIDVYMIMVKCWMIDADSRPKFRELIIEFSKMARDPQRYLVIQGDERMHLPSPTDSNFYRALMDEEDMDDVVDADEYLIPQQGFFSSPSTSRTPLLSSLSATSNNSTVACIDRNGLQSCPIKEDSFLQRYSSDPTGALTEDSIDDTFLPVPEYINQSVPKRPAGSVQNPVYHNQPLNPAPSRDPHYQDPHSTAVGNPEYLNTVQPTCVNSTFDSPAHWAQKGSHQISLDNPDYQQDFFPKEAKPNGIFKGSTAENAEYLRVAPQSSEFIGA
EGFR, sequence (P00533 25-1210): as above
ErbB2 with Exon 20 YVMA insertion (HER2-YVMA), sequence (P04626 other isoform, or with tags, fused parts or gaps ins YVMA behind 775): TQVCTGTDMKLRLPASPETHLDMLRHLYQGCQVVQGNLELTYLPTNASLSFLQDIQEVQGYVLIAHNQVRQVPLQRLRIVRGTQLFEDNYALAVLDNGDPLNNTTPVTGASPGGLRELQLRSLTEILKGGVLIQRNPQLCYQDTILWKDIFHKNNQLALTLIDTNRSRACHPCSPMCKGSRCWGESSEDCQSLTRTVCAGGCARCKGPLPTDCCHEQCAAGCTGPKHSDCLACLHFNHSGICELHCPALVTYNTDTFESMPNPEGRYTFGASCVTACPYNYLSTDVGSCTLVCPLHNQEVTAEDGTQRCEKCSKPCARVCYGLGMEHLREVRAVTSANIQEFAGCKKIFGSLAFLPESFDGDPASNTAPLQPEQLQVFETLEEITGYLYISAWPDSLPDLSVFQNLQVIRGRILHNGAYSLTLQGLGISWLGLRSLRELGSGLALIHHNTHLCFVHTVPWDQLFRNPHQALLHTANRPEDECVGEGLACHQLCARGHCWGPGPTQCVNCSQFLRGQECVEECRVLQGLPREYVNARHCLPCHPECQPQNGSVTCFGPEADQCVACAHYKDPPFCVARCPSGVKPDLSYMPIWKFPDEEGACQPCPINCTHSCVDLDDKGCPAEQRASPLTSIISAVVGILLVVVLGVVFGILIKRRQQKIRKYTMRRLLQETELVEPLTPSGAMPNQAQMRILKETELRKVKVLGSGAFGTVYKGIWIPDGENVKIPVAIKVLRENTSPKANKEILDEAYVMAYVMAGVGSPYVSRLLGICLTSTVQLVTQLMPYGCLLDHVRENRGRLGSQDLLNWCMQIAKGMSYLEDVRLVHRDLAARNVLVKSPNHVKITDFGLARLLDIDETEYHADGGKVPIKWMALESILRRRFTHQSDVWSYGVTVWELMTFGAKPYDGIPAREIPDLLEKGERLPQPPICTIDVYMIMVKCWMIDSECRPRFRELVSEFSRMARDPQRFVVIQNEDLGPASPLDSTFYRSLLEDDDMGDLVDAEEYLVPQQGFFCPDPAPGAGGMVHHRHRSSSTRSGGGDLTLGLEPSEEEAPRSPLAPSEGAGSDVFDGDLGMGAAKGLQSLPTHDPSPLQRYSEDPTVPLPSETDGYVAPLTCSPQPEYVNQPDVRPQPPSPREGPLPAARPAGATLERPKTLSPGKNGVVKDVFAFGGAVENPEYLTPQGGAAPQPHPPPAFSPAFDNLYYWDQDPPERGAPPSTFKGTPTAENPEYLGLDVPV

Compound	IC50 [1]	IC50 [2]	IC50 [3]	IC50 [4]	efflux ratio at 2 h, 1 μM [5]	IC50 [6]	efflux ratio at 2 h, 1 μM [7]	IC50 [8]	efflux ratio at 2 h, 1 μM [9]
CSc1ncc2ncnc(Nc3ccc(Oc4ccc5c(c4)ncn5C)c(C)c3)c2n1 [Example 1, N-(3-methyl-4-((1-methyl-1H-benzo[d]imidazol-5-yl)oxy)phenyl)-6-(methylthio)pyrimido[5,4-d]pyrimidin-4-amine]	19.3 nM	41.1 nM	5000 nM	29.2 nM	1.4	≥ 10000 nM	1.2		
Cc1cc(Nc2ncnc3cnc(S(C)(=O)=O)nc23)ccc1Oc1ccc2c(c1)ncn2C [Example 2, N-(3-methyl-4-((1-methyl-1H-benzo[d]imidazol-5-yl)oxy)phenyl)-6-(methylsulfonyl)pyrimido[5,4-d]pyrimidin-4-amine]	7.9 nM	14.9 nM	5000 nM	4750 nM		4640 nM			
Cc1cc(Nc2ncnc3cnc(N(C)C)nc23)ccc1Oc1ccc2c(c1)ncn2C [Example 3, N2,N2-dimethyl-N8-(3-methyl-4-((1-methyl-1H-benzo[d]imidazol-5-yl)oxy)phenyl)pyrimido[5,4-d]pyrimidine-2,8-diamine 2,2,2-trifluoroacetate]	12.5 nM	52.4 nM	5000 nM	42.9 nM	1	8250 nM	1		
CNc1ncc2ncnc(Nc3ccc(Oc4ccc5c(c4)ncn5C)c(C)c3)c2n1 [Example 4, N2-methyl-N8-(3-methyl-4-((1-methyl-1H-benzo[d]imidazol-5-yl)oxy)phenyl)pyrimido[5,4-d]pyrimidine-2,8-diamine]	8.9 nM	30 nM	5000 nM	7.2 nM	1.4	4900 nM	0.9		
Cc1cc(Nc2ncnc3cnc(S(C)(=O)=O)nc23)ccc1Oc1ccc2c(C)onc2c1 [Example 5, N-(3-methyl-4-((3-methylbenzo[c]isoxazol-6-yl)oxy)phenyl)-6-(methylsulfonyl)pyrimido[5,4-d]pyrimidin-4-amine]	9.8 nM	10.9 nM	5000 nM	4450 nM		4150 nM			
COc1ncc2ncnc(Nc3ccc(Oc4ccc5c(C)onc5c4)c(C)c3)c2n1 [Example 6, 6-methoxy-N-(3-methyl-4-((3-methylbenzo[c]isoxazol-6-yl)oxy)phenyl)pyrimido[5,4-d]pyrimidin-4-amine]	24.6 nM	232 nM	5000 nM	1450 nM		≥ 10000 nM			
COc1ncc2ncnc(Nc3ccc(Oc4ccc5csnc5c4)c(C)c3)c2n1 [Example 7, N-(4-(benzo[c]isothiazol-6-yloxy)-3-methylphenyl)-6-methoxypyrimido[5,4-d]pyrimidin-4-amine 2,2,2-trifluoroacetate]	18.5 nM	56.8 nM	5000 nM	146 nM	1.3	2010 nM	1		
COc1ncc2ncnc(Nc3ccc(Oc4ccc5c(c4)ncn5C)c(C)c3)c2n1 [Example 8, 6-methoxy-N-(3-methyl-4-((1-methyl-1H-benzo[d]imidazol-5-yl)oxy)phenyl)pyrimido[5,4-d]pyrimidin-4-amine 2,2,2-trifluoroacetate]	22.7 nM	69.7 nM	5000 nM	159 nM	1	≥ 10000 nM	0.9		
Cc1cc(Nc2ncnc3cnc(N4CCOCC4)nc23)ccc1Oc1ccc2c(c1)ncn2C [Example 9, N-(3-methyl-4-((1-methyl-1H-benzo[d]imidazol-5-yl)oxy)phenyl)-6-morpholinopyrimido[5,4-d]pyrimidin-4-amine 2,2,2-trifluoroacetate]	13.6 nM	64 nM	5000 nM	4.9 nM	1.2	≥ 10000 nM	0.8		
CSc1ncc2ncnc(Nc3ccc(Oc4ccc5conc5c4)c(C)c3)c2n1 [Example 10, N-(4-(benzo[c]isoxazol-6-yloxy)-3-methylphenyl)-6-(methylthio)pyrimido[5,4-d]pyrimidin-4-amine]	49 nM	144 nM	5000 nM	671 nM		≥ 10000 nM			
CSc1ncc2ncnc(Nc3ccc(Oc4ccc5csnc5c4)c(C)c3)c2n1 [Example 11, N-(4-(benzo[c]isothiazol-6-yloxy)-3-methylphenyl)-6-(methylthio)pyrimido[5,4-d]pyrimidin-4-amine 2,2,2-trifluoroacetate]	54.4 nM	97.4 nM	5000 nM	95.1 nM	0.7	925 nM	0.7		
CSc1ncc2ncnc(Nc3ccc(Oc4ccc5c(C)onc5c4)c(C)c3)c2n1 [Example 12, N-(3-methyl-4-((3-methylbenzo[c]isoxazol-6-yl)oxy)phenyl)-6-(methylthio)pyrimido[5,4-d]pyrimidin-4-amine]	64.2 nM	275 nM	5000 nM	403 nM		≥ 10000 nM			
Cc1cc(Nc2ncnc3cnc(N4CCC(F)(F)C4)nc23)ccc1Oc1ccc2c(c1)ncn2C [Example 299]	49.8 nM	146 nM		30.5 nM	0.4	≥ 10000 nM		≥ 5000 nM	1.2
Cc1c(Oc2ccn3ncnc3c2)ccc(Nc2ncnc3cnc(N4CCC(C)(O)CC4)nc23)c1F [Example 304]	11.7 nM	48.6 nM		114 nM	1.2	2840 nM		≥ 5000 nM	7.3
Cc1cc(Nc2ncnc3cnc(N4C[C@@H]5COC[C@@H]54)nc23)ccc1Oc1ccc2c(c1)ncn2C [Example 348]	40.1 nM	69.1 nM		14.5 nM	1.4	≥ 10000 nM		≥ 5000 nM	5
Cn1cnc2cc(Oc3ccc(Nc4ncnc5cnc(N6CC[C@H](CC#N)C6)nc45)cc3Cl)ccc21 [Example 358]	53.2 nM	35.8 nM		19.2 nM	1.6	≥ 10000 nM		≥ 5000 nM	8.9
Cc1cc(Nc2ncnc3cnc(N(C)CC4COC4)nc23)ccc1Oc1ccc2c(c1)ncn2C [Example 402]	39.7 nM	14.9 nM		14.9 nM	1.4	≥ 10000 nM		≥ 5000 nM	2.3
